As a reminder, the IC50 is the concentration that gives 50% inhibition.

Assay type in all cases: cell-based
The test system of one assay is A431 cells. Kind of assay: Cellular proliferation (Alamar Blue) assay, A431 cells. The conditions noted are these: A431 cells, 72 hr, Alamar Blue, read-out: A431 IC50. The gist of the method: (§1)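 Seed A431 at 5000 and Ba/F3 at 15,000 cells/well in 10% FBS medium and incubate 16-18 h at 37 °C, 5% CO2. Add compound (final 10-0.0005 μM, 3-fold steps) or DMSO for 72 h. Add Alamar Blue and read after 3 h.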
A general note: Alamar Blue is a resazurin reagent that responds to reducing activity.

For assay [1], the target named is HER2 (A775_G776insYVMA) expressing Ba/F3 stable cell line (Homo sapiens, UniProt P04626, DUP772-775, cells depend on it). Kind of assay: Cellular proliferation (Alamar Blue) assay, HER2 (A775_G776insYVMA) Ba/F3. The conditions noted are these: HER2 (A775_G776insYVMA) Ba/F3 cells; 72 hr; Alamar Blue; read-out: YVMA IC50. The procedure, abridged: as §1
Assay [2] has as its target EGFR (A767_dupASV) expressing Ba/F3 stable cell line (Homo sapiens, UniProt P00533, DUP767-769, cells depend on it). Kind of assay: Cellular proliferation (Alamar Blue) assay, EGFR (A767_dupASV) Ba/F3. To be noted: 72 hr, read-out: A767 IC50. The gist of the method:
as §1

Assay [3] concerns the target EGFR(D770_N771insSVD) expressing Ba/F3 stable cell line (Homo sapiens, UniProt P00533, DUP768-770, cells depend on it). Kind of assay: Cellular proliferation (Alamar Blue) assay, EGFR(D770_N771insSVD) Ba/F3. The conditions noted are these: 72 hr, read-out: D770 IC50. The gist of the method:
as §1

Read-outs that look alike come from different tables or passages of the source.

Chain of EGFR(D770_N771insSVD) expressing Ba/F3 stable cell line (P00533 with tags, fused parts or gaps DUP768-770): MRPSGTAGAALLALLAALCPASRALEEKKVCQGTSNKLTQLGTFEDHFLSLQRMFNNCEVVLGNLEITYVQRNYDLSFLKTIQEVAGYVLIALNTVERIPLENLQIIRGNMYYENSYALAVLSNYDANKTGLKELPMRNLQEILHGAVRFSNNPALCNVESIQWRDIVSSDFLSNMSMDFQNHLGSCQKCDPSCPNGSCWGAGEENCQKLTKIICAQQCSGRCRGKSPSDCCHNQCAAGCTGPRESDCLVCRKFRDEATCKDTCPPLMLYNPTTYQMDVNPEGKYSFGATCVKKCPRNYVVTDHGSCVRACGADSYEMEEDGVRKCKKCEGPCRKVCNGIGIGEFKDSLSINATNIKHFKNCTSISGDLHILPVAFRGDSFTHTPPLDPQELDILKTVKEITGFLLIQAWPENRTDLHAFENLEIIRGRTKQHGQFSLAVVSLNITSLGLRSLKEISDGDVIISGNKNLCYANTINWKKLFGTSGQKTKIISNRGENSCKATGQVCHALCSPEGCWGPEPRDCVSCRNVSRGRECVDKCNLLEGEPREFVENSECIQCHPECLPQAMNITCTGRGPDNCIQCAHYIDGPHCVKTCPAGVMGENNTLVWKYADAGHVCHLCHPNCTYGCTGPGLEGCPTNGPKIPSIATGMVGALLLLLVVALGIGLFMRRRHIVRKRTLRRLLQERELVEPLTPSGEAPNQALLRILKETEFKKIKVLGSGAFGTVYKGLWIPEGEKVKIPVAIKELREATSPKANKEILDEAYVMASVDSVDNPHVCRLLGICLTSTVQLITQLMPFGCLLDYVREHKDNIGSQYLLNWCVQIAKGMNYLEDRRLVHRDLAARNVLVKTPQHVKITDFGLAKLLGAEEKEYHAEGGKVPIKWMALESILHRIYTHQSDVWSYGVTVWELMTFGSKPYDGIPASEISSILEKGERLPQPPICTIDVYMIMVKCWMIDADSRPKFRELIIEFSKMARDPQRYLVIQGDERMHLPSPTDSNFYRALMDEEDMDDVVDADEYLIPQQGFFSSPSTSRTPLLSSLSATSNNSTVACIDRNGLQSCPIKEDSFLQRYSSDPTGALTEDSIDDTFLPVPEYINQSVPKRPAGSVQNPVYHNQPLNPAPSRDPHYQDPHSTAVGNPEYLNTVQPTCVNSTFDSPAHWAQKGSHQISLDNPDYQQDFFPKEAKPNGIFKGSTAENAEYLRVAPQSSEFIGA
Chain of EGFR (A767_dupASV) expressing Ba/F3 stable cell line (P00533 with tags, fused parts or gaps DUP767-769): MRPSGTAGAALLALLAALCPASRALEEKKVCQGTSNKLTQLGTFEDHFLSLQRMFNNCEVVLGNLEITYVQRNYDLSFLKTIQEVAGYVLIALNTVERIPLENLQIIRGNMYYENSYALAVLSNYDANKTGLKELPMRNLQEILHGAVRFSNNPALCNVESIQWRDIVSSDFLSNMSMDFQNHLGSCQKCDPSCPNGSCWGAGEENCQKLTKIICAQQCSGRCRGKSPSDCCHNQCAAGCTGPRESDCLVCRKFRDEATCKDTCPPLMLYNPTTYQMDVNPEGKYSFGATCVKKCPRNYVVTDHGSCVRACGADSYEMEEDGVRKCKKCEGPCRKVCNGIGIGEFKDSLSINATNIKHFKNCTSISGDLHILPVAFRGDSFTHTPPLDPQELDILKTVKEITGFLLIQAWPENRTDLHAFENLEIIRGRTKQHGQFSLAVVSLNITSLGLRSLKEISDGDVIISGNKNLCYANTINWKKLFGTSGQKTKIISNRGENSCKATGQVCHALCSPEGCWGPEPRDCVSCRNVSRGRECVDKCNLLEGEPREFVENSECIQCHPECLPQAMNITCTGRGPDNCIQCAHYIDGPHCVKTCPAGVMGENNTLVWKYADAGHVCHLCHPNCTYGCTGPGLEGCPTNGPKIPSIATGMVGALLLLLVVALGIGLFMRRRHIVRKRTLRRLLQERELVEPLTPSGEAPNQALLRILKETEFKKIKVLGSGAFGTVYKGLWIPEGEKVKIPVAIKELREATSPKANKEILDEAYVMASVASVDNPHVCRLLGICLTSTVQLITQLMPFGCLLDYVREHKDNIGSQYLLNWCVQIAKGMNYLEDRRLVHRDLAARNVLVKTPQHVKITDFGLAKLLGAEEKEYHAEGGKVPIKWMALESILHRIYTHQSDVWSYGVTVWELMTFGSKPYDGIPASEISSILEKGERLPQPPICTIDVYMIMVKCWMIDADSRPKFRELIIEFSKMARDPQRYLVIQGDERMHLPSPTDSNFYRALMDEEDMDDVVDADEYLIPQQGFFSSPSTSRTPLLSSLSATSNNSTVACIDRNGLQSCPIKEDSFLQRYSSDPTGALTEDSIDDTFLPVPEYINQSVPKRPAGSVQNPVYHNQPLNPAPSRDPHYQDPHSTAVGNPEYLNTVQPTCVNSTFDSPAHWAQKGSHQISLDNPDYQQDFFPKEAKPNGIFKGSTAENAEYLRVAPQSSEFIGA
Chain of HER2 (A775_G776insYVMA) expressing Ba/F3 stable cell line (P04626 with tags, fused parts or gaps DUP772-775): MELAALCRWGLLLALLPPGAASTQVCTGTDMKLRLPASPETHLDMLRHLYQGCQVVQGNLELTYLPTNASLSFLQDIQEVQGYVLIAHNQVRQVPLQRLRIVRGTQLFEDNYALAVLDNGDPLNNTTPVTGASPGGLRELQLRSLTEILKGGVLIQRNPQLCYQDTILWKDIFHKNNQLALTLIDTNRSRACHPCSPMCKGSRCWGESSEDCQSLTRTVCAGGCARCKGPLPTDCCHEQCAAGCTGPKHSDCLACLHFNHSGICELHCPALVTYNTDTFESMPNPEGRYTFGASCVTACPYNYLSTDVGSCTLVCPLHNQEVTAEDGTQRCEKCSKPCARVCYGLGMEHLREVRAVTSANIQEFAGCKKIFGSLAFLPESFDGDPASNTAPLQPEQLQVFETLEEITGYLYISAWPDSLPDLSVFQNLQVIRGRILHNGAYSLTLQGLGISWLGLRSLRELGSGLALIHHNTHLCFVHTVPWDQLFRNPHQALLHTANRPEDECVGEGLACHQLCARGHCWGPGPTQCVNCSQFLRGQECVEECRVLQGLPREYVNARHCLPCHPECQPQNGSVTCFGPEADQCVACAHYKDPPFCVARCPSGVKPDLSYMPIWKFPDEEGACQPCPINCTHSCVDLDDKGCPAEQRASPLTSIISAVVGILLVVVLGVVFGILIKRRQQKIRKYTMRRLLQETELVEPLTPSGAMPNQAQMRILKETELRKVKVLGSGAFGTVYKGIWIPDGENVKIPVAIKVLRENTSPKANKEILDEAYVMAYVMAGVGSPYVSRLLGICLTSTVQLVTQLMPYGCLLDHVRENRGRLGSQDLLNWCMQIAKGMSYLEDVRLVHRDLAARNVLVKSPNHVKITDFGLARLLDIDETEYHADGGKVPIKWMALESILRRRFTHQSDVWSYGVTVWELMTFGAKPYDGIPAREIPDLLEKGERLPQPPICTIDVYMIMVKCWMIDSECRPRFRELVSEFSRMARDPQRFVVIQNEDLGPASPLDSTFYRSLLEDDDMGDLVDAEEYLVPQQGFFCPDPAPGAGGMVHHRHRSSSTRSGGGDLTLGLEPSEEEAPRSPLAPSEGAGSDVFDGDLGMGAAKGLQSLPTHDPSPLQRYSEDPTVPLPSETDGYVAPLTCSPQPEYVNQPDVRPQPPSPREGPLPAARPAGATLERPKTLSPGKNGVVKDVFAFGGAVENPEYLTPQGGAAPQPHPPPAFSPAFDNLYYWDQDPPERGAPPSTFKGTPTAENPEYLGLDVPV

For the molecule `C=CC(=O)Nc1ccc(F)c(Nc2nc(Nc3cnn(C)c3)ncc2-c2cc(C(F)F)cc(C(F)F)c2)c1` [Compound 155, N-(3-((5-(3,5-bis(difluoromethyl)phenyl)-2-((1-methyl-1H-pyrazol-4-yl)amino)pyrimidin-4-yl)amino)-4-fluorophenyl)acrylamide], the IC50 in the assay with A431 cells (Homo sapiens, A-431, 72 h) worked out at 338 nM. In addition, the GI50 in assay [1] amounted to 1670 nM; in assay [2], 133 nM; in assay [3], 107 nM.

Turning to `[2H]c1c(F)cc(-c2cnc(Nc3cnn(C)c3)nc2Nc2cc(NC(=O)C=C)ccc2F)cc1F` [Compound 157, N-[3-({5-[3,5-difluoro(4-^2H)phenyl]-2-[(1-methyl-1H-pyrazol-4-yl)amino]pyrimidin-4-yl}amino)-4-fluorophenyl] prop-2-enamide], in the assay with A431 cells (Homo sapiens, A-431, 72 h), the IC50 stood at 23 nM. The GI50 in assay [1] was determined as 151 nM; in assay [2], 35 nM; in assay [3] it was 16 nM.

With `C=CC(=O)Nc1ccc(F)c(Nc2nc(Nc3cnn(C)c3)ncc2-c2cc(F)c(Cl)c(F)c2)c1` [Compound 158, N-(3-((5-(4-chloro-3,5-difluorophenyl)-2-((1-methyl-1H-pyrazol-4-yl)amino)pyrimidin-4-yl)amino)-4-fluorophenyl)acrylamide], the IC50 in the assay with A431 cells (Homo sapiens, A-431, 72 h) worked out at 10 nM. The GI50 in assay [1] stood at 40 nM; in assay [2] it was 15 nM; in assay [3], 11 nM.

For the molecule `C=CC(=O)Nc1cc(Cl)cc(Nc2nc(Nc3cnn(C)c3)ncc2-c2ccc(Br)c(F)c2)c1` [Compound 159, N-(3-((5-(4-bromo-3-fluorophenyl)-2-((1-methyl-1H-pyrazol-4-yl)amino)pyrimidin-4-yl)amino)-5-chlorophenyl)acrylamide], in the assay on A431 cells (Homo sapiens, A-431, 72 h), the IC50 worked out at 23 nM. Also, the values for the GI50 in assay [1], in assay [2] and in assay [3] were 125 nM, 29 nM and 24 nM, respectively.

For the molecule `C=CC(=O)Nc1ccc(F)c(Nc2nc(Nc3cnn(C)c3)ncc2-c2cc(F)c(F)c(OC(F)F)c2)c1` [Compound 160, N-(3-((5-(3-(difluoromethoxy)-4,5-difluorophenyl)-2-((1-methyl-1H-pyrazol-4-yl)amino)pyrimidin-4-yl)amino)-4-fluorophenyl)acrylamide], in the assay on A431 cells (Homo sapiens, A-431, 72 h), the IC50 was determined as 261 nM. The GI50 worked out at 163 nM in assay [1], 63 nM in assay [2] and 68 nM in assay [3].

Regarding `CN(C)C/C=C/C(=O)Nc1ccc(F)c(Nc2nc(Nc3cnn(C)c3)ncc2-c2cc(F)cc(F)c2)c1` [Compound 161, (E)-N-(3-((5-(3,5-difluorophenyl)-2-((1-methyl-1H-pyrazol-4-yl)amino)pyrimidin-4-yl)amino)-4-fluorophenyl)-4-(dimethylamino)but-2-enamide], in the assay with A431 cells, the 50% inhibitory concentration (IC50) worked out at 759 nM. Besides, the figures for the GI50 in assay [1], in assay [2] and in assay [3] were 62 nM, 140 nM and 217 nM, respectively.

Take `C=CC(=O)Nc1ccc(F)c(Nc2nc(Nc3cnn(C)c3)ncc2-c2ccc3c(c2)OCC3)c1` [Compound 162, N-(3-((5-(2,3-dihydrobenzofuran-6-yl)-2-((1-methyl-1H-pyrazol-4-yl)amino)pyrimidin-4-yl)amino)-4-fluorophenyl)acrylamide]: in the assay with A431 cells (Homo sapiens, A-431, 72 h), the IC50 was determined as 84 nM. The GI50 in assay [1] amounted to 428 nM; in assay [2] it was 116 nM; in assay [3] it was 38 nM.

With `C=CC(=O)Nc1cc(F)cc(Nc2nc(Nc3cnn(C)c3)ncc2-c2cc(F)c(Br)c(Cl)c2)c1` [Compound 163, N-(3-((5-(4-bromo-3-chloro-5-fluorophenyl)-2-((1-methyl-1H-pyrazol-4-yl)amino)pyrimidin-4-yl)amino)-5-fluorophenyl)acrylamide], the IC50 with A431 cells (Homo sapiens, A-431, 72 h) was found to be 128 nM. Further, the GI50 in assay [1] was found to be 104 nM; in assay [2] it was 22 nM; in assay [3], 26 nM.

In the case of `C=CC(=O)Nc1cc(F)cc(Nc2nc(Nc3cnn(C)c3)ncc2-c2cc(F)c(C(F)(F)F)c(F)c2)c1` [Compound 164, N-(3-((5-(3,5-difluoro-4-(trifluoromethyl)phenyl)-2-((1-methyl-1H-pyrazol-4-yl)amino)pyrimidin-4-yl)amino)-5-fluorophenyl)acrylamide], the IC50 in the assay with A431 cells (Homo sapiens, A-431, 72 h) stood at 103 nM. For the same molecule, the GI50 turned out to be 157 nM in assay [1], 18 nM in assay [2] and 22 nM in assay [3].

For `[2H]C([2H])([2H])Oc1cc(F)cc(-c2cnc(Nc3cnn(C)c3)nc2Nc2cc(NC(=O)C=C)ccc2F)c1` [Compound 165, N-(4-fluoro-3-((5-(3-fluoro-5-(methoxy-d3)phenyl)-2-((1-methyl-1H-pyrazol-4-yl)amino)pyrimidin-4-yl)amino)phenyl)acrylamide], the IC50 with A431 cells (Homo sapiens, A-431, 72 h) is 387 nM. Moreover, the GI50 in assay [1] stood at 208 nM; in assay [2], 110 nM; in assay [3] it was 70 nM.

Turning to `Cn1cc(Nc2ncc(-c3ccc(Br)c(F)c3)c(Nc3cc(NC(=O)/C=C/CN4CCC4)ccc3F)n2)cn1` [Compound 166, (E)-4-(azetidin-1-yl)-N-(3-((5-(4-bromo-3-fluorophenyl)-2-((1-methyl-1H-pyrazol-4-yl)amino)pyrimidin-4-yl)amino)-4-fluorophenyl)but-2-enamide], the IC50 in the assay with A431 cells (Homo sapiens, A-431, 72 h) was found to be 613 nM. The GI50 in assay [1] stood at 555 nM; in assay [2] it was 299 nM; in assay [3], 75 nM.

As for `[2H]C([2H])([2H])n1cc(Nc2ncc(-c3cc(F)cc(F)c3)c(Nc3cc(NC(=O)/C=C/CN(C)C)ccc3F)n2)cn1` [Compound 167, (E)-N-(3-((5-(3,5-difluorophenyl)-2-((1-(methyl-d3)-1H-pyrazol-4-yl)amino)pyrimidin-4-yl)amino)-4-fluorophenyl)-4-(dimethylamino)but-2-enamide], the IC50 in the assay with A431 cells (Homo sapiens, A-431, 72 h) worked out at 512 nM. Further, the GI50 in assay [1] turned out to be 142 nM; in assay [2] it was 234 nM; in assay [3], 84 nM.

Regarding `C=CC(=O)Nc1ccc(F)c(Nc2nc(Nc3cnn(C)c3)ncc2-c2cc(F)cc(OC(F)F)c2)c1` [Compound 168, N-(3-((5-(3-(difluoromethoxy)-5-fluorophenyl)-2-((1-methyl-1H-pyrazol-4-yl)amino)pyrimidin-4-yl)amino)-4-fluorophenyl)acrylamide], the IC50 in the assay on A431 cells (Homo sapiens, A-431, 72 h) was determined as 67 nM. In addition, the GI50 in assay [1] is 574 nM; in assay [2], 132 nM; in assay [3], 262 nM.

For the molecule `C=CC(=O)Nc1cc(F)c(F)c(Nc2nc(Nc3cnn(C)c3)ncc2-c2cc(F)cc(OC)c2)c1` [Compound 170, N-(3,4-difluoro-5-((5-(3-fluoro-5-methoxyphenyl)-2-((1-methyl-1H-pyrazol-4-yl)amino)pyrimidin-4-yl)amino)phenyl)acrylamide], in the assay on A431 cells (Homo sapiens, A-431, 72 h), the IC50 was determined as 5250 nM. Moreover, the figures for the GI50 in assay [1], in assay [2] and in assay [3] were above 9040 nM, above 10000 nM and above 10000 nM, respectively.

As to `CN(C)C/C=C/C(=O)Nc1ccc(F)c(Nc2nc(Nc3cnn(C)c3)ncc2-c2cc(F)c(Br)c(F)c2)c1` [Compound 171, (E)-N-(3-((5-(4-bromo-3,5-difluorophenyl)-2-((1-methyl-1H-pyrazol-4-yl)amino)pyrimidin-4-yl)amino)-4-fluorophenyl)-4-(dimethylamino)but-2-enamide], the IC50 in the assay on A431 cells (Homo sapiens, A-431, 72 h) amounted to 57 nM. Also, the GI50 in assay [1] is 113 nM; in assay [2], 99 nM; in assay [3], 79 nM.

In the case of `C=CC(=O)Nc1ccc(F)c(Nc2nc(Nc3cnn(C)c3)ncc2-c2cc(F)cc(OC(F)(F)F)c2)c1` [Compound 172, N-(4-fluoro-3-((5-(3-fluoro-5-(trifluoromethoxy)phenyl)-2-((1-methyl-1H-pyrazol-4-yl)amino)pyrimidin-4-yl)amino)phenyl)acrylamide], in the assay on A431 cells (Homo sapiens, A-431, 72 h), the IC50 stood at 585 nM. Besides, the figures for the GI50 in assay [1], in assay [2] and in assay [3] were 5980 nM, 967 nM and 843 nM, respectively.

As to `C=CC(=O)Nc1cc(Br)cc(Nc2nc(Nc3cnn(C)c3)ncc2-c2cc(F)cc(Cl)c2)c1` [Compound 173, N-(3-bromo-5-((5-(3-chloro-5-fluorophenyl)-2-((1-methyl-1H-pyrazol-4-yl)amino)pyrimidin-4-yl)amino)phenyl)acrylamide], the IC50 with A431 cells (Homo sapiens, A-431, 72 h) came out at 776 nM. For the same molecule, the GI50 came to 1520 nM in assay [1], 311 nM in assay [2] and 101 nM in assay [3].

With `C=CC(=O)Nc1cc(Br)cc(Nc2nc(Nc3cnn(C)c3)ncc2-c2cc(F)cc(C(F)F)c2)c1` [Compound 174, N-(3-bromo-5-((5-(3-(difluoromethyl)-5-fluorophenyl)-2-((1-methyl-1H-pyrazol-4-yl)amino)pyrimidin-4-yl)amino)phenyl)acrylamide], the IC50 in the assay with A431 cells (Homo sapiens, A-431, 72 h) was determined as 358 nM. The figures for the GI50 in assay [1], in assay [2] and in assay [3] were 759 nM, 120 nM and 42 nM, respectively.

Regarding `Cn1cc(Nc2ncc(-c3ccc(Br)c(F)c3)c(Nc3cc(NC(=O)/C=C/CF)ccc3F)n2)cn1` [Compound 175, (E)-N-(3-((5-(4-bromo-3-fluorophenyl)-2-((1-methyl-1H-pyrazol-4-yl)amino)pyrimidin-4-yl)amino)-4-fluorophenyl)-4-fluorobut-2-enamide], in the assay on A431 cells (Homo sapiens, A-431, 72 h), the IC50 came out at 347 nM. In addition, the GI50 in assay [1] turned out to be 1620 nM; in assay [2], 224 nM; in assay [3], 136 nM.
